Assay results reported in patent US11753395B2 (Kinnate Biopharma Inc., priority 2021, dated 2023).

Key:
Ba/F3-TPR-MET cells = molecular target: T1, Ba/F3-TPR-MET cells (Homo sapiens, UniProt P08581); assay: CellTiter-Glo Cell Viability Assay, Ba/F3-TPR-MET; type: cell-based; details: 72 hours
T1 construct: fused on or other part: P12270 (Nucleoprotein TPR)
Summary of the method: (§1)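 Ba/F3 cells carrying TPR-MET or TPR-MET-D1228N, 3000 per well, were exposed for 72 h at 37 °C to 9-point 3-fold compound dilutions at 0.1% DMSO. Viability was read as ATP by CellTiter-Glo 2.0 luminescence, and IC50 values came from curve fitting.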

MET D1228N = molecular target: T2, MET D1228N (Homo sapiens, UniProt P08581, D1228N); assay: MET D1228N Mobility Shift Assay; details: biochemical assay IC50; 100 μM ATP, 60 minute kinase reaction
T2 construct: purchased Signalchem M52-12IG
Summary of the method: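 Enzyme at 0.313 nM preincubated 30 min at room temperature with 1.5 μM FAM-labelled peptide and 10 mM MgCl2 in HEPES buffer with DTT; reaction started with 100 μM ATP, run 60 min, stopped with EDTA. Substrate/product separated by microfluidic mobility shift; IC50 from inhibition of % conversion.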

[1] = molecular target: T3, Ba/F3-TPR-MET-D1228N cells (Homo sapiens, UniProt P08581, D1228N, cells depend on it); assay: CellTiter-Glo Cell Viability Assay, Ba/F3-TPR-MET-D1228N; type: cell-based; details: 72 hours
T3 construct: fused on or other part: P12270 (Nucleoprotein TPR)
Summary of the method: as §1

MET = molecular target: T4, MET (Homo sapiens, UniProt P08581); assay: MET Mobility Shift Assay; details: biochemical assay IC50; 100 μM ATP, 60 minute kinase reaction
T4 construct: purchased Carna Biosciences 08-151
Summary of the method: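 Recombinant MET at 0.625 nM was pre-incubated 30 min at room temperature with 1.5 μM FLPeptide30 and 10 mM MgCl2 in HEPES buffer with DTT. The reaction was started with 100 μM ATP, ran 60 min, and was stopped with EDTA. Microfluidic mobility-shift % conversion gave IC50.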

Molecule | IC50 (MET D1228N) [nM] | IC50 (MET) [nM] | EC50 (Ba/F3-TPR-MET cells) [nM] | EC50 [1] [nM]
COc1cc2nccc(Oc3c(F)cc(NC(=O)c4c(OC5CC5)ccnc4F)cc3F)c2nc1OC [Example 144, 4-cyclopropoxy-N-(4-((6,7-dimethoxy-1,5-naphthyridin-4-yl)oxy)-3,5-difluorophenyl)-2-fluoropyridine-3-carboxamide] | ≤ 100 | ≤ 100 | ≤ 100 | ≤ 100
COc1ccncc1C(=O)Nc1cc(F)c(Oc2ccnc3cc(OC)c(O[C@@H](C)CO)nc23)c(F)c1 [Example 145, (S)-N-(3,5-difluoro-4-((6-((1-hydroxypropan-2-yl)oxy)-7-methoxy-1,5-naphthyridin-4-yl)oxy)phenyl)-4-methoxynicotinamide] | ≤ 100 | ≤ 100 | ≤ 100 | ≤ 100
COC[C@H](C)Oc1nc2c(Oc3c(F)cc(NC(=O)c4cnccc4OC)cc3F)ccnc2cc1OC [Example 146, (S)-N-(3,5-difluoro-4-((7-methoxy-6-((1-methoxypropan-2-yl)oxy)-1,5-naphthyridin-4-yl)oxy)phenyl)-4-methoxynicotinamide] | ≤ 100 | ≤ 100 | ≤ 100 | ≤ 100
COc1ccncc1C(=O)Nc1cc(F)c(Oc2ccnc3cc(OC)c(OC4(CO)CC4)nc23)c(F)c1 [Example 147, N-(3,5-difluoro-4-((6-(1-(hydroxymethyl)cyclopropoxy)-7-methoxy-1,5-naphthyridin-4-yl)oxy)phenyl)-4-methoxynicotinamide] | ≤ 100 | ≤ 100 | ≤ 100 | ≤ 100
(R)-N-(4-((7-(2-aminopropoxy)quinolin-4-yl)oxy)-3,5-difluorophenyl)-4-cyclopropoxypyridine-3-carboxamide [Example 13] | ≤ 100 | ≤ 100 | 100 to 1000 | ≤ 100
(S)-N-(4-((7-(2-aminopropoxy)quinolin-4-yl)oxy)-3,5-difluorophenyl)-4-cyclopropoxypyridine-3-carboxamide [Example 12] | ≤ 100 | ≤ 100 | ≤ 100 | ≤ 100

The next lines start with results.

IC50 (MET D1228N) [nM] | IC50 (MET) [nM] | Molecule | EC50 (Ba/F3-TPR-MET cells) [nM] | EC50 [1] [nM]
≤ 100 | ≤ 100 | COc1cc2c(Oc3c(F)cc(NC(=O)c4nnccc4OC4CC4)cc3F)ccnc2cc1OCCO [Example 148, 4-cyclopropoxy-N-(3,5-difluoro-4-((7-(2-hydroxyethoxy)-6-methoxyquinolin-4-yl)oxy)phenyl)pyridazine-3-carboxamide] | ≤ 100 | ≤ 100
≤ 100 | ≤ 100 | COc1cc2nccc(Oc3c(F)cc(NC(=O)c4nnccc4OC4CC4)cc3F)c2cc1OC [Example 149, 4-cyclopropoxy-N-(4-((6,7-dimethoxyquinolin-4-yl)oxy)-3,5-difluorophenyl)pyridazine-3-carboxamide] | 100 to 1000 | ≤ 100
